Legend:
HIV-1 Protease = target: T1, HIV-1 Protease (Human immunodeficiency virus type 1 group M subtype B, UniProt P04585); assay: HIV Protease Inhibition Assay (HPLC of undecapeptide substrate hydrolysis); type: biochemical; conditions: 40 μM substrate, 37° C., 5 minutes, pH 4.7, 2% DMSO; read-out: 50% INHIBITION CONCENTRATION
T1 construct: HIV-1 Protease: The enzyme is obtained from Bachem Bioscience Inc; purchased Bachem Bioscience Inc
Procedure: The biological activity of the subject compounds was determined in an HIV Protease Inhibition Assay.
DTT Buffer: 1.0 mM dithiothreitol (DTT) was prepared fresh daily in 0.1% polyethylene glycol (mw 8000) 80 mM NaOAc, 160 mM NaCl, 1.0 mM EDTA, and brought to pH 4.7 with HCl.
HIV-1 Protease: The enzyme is obtained from Bachem Bioscience Inc. The undiluted enzyme is thawed from -80° C. and diluted 50-fold with DTT buffer. The solution is always kept at 0° C. on ice water and used in the experiment within 20 minutes after thawing.
Ensyme Substrates: Substrate III from Bachem Bioscience Inc. is the undecapeptide H-His-Lys-Ala-Arg-Val-Leu-p-Nitrophenylalanine-Glu-Ala-Norleucine-Ser-NH2 (>97% purity). A 200 μM stock solution in DTT buffer is prepared and stored on ice. Substrate solution is prepared fresh daily.
Test Compound: 10 mM inhibitor (I) in dimethyl sulfoxide (DMSO) is diluted to 200 μM with DTT buffer. From the 200 μM stock solution is made a 10 μM stock solution with 2% DMSO in DTT buffer. The two inhibitor solutions are used to make final I!=100, 50, 20, 10, 5, 2, 1, 0.5 and 0 μM with 2% DMSO in DTT buffer in each reaction well (total inhibitor volume of 50 μl).
To each reaction well is added 20 μl of substrate (final concentration of 40 μM), 50 μl of inhibitor (at a concentration such that final dilution will produce the test concentration) and 20 μl of DTT buffer. The reaction plate (96 wells) is incubated at 37° C. for at least 5 minutes.
10 μl of the diluted protease is added to the reaction well while the reaction plate is shaking. Once shaken for 10 seconds, the plate is returned to the heating block at 37° C. (final reaction volume 100 μl.)
The reaction is incubated for 5 minutes at 37° C. The reaction is stopped by placing the reaction plate on the shaker and adding 20 μl of 10% trifluoroacetic acid (TFA) and shaking for 10 seconds. The amount of proteolysis is then determined by separation of noncleaved substrate and two cleaved products with reverse-phase HPLC, while measuring absorbance at 220 nm to determine the relative peak areas of the three components. The relative peak areas are used to calculate % conversion to product as a function of inhibitor concentration. The data is plotted as % Control (the ratio of % conversion is the presence and absence of inhibitor×100) versus inhibitor concentration and fit with the equation Y=100/1+(X/IC50)^A, where IC50 is the inhibitor concentration at 50% inhibition and A is the slope of the inhibition curve.

HIV = conditions: cell-free and cell-mediated; literature; cited from earlier work

Structure (SMILES) | IC50 (HIV-1 Protease) | inhibiting HIV infection (HIV)
O=c1oc2c(c(O)c1SCc1ccccc1)Cc1ccccc1-2 [Example 1, 4-Hydroxy-3-(phenylmethyl)thio!-indeno 1,2-b!pyran-2(5H)-one] | 1300 nM | 
O=c1oc2c(c(O)c1SCc1ccccc1)Cc1ccc(O)cc1-2 [Example 3, 4,8-Dihydroxy-3-(phenylmethyl)thio!-indeno 1,2-b!pyran-2(5H)-one] | 700 nM | 
O=c1oc2c(c(O)c1SCc1ccccc1)CCc1ccccc1-2 [Example 4, 5,6-Dihydro-4-hydroxy-3-(phenylmethyl)thio!-2H-naphtho 1,2-b!pyran-2-one] | 1400 nM | 
Cc1cc(C)c2c(c1)-c1oc(=O)c(SCc3ccccc3)c(O)c1CC2 [Example 6, 5,6-Dihydro-4-hydroxy-7,9-dimethyl-3-(phenylmethyl)thio!-2H-naphtho 1,2-b! pyran-2-one] | 2000 nM | 
O=c1oc2c(c(O)c1SCc1ccccc1)CCc1cc(O)ccc1-2 [Example 9, 5,6-Dihydro-4,8-dihydroxy-3-(phenylmethyl)thio! -2H-naphtho 1,2-b !pyran-2-one] | 2500 nM | 
O=c1oc2c(c(O)c1SCc1ccccc1)Cc1ccc(OCc3ccccc3)cc1-2 [Example 11, 4-Hydroxy-8-(phenylmethoxy)-3-(phenylmethyl)thio!indeno 1,2-b!pyran-2(5H)-one] | 2200 nM | 
O=c1oc2c(c(O)c1SCc1ccccc1)COc1ccccc1-2 [Example 14, 4-Hydroxy-3-(phenylmethyl)thio!-2H,5H-pyrano 3,2-c! 1!bensopyran-2-one] | 4000 nM | 
O=c1oc2c(c(O)c1SCCc1ccccc1)Cc1ccccc1-2 [Example 16, 4-Hydroxy-3-(2-phenylethyl)thio!indeno 1,2-b!pyran-2(5H)-one] | 3500 nM | 
O=c1oc2c(c(O)c1SCc1ccccc1)CSc1ccccc1-2 [Example 25, 4-Hydroxy-3-(phenylmethyl)thio!-2H,5H-1!bensothiopyrano 4,3-b!pyran-2-one] | 1300 nM | 
O=C(O)COc1ccc2c(c1)-c1oc(=O)c(SCc3ccccc3)c(O)c1C2 [Example 29, 2,5-Dihydro-4-hydroxy-2-oxo-3-(phenylmethyl)thio!indeno 1,2-b!pyran-8 !oxy!-acetic acid] | 1400 nM | 
CC(=O)CC(c1ccccc1)c1c(O)c2ccccc2oc1=O (stereo not drawn) [Warfarin, 3-(α-acetonylbenzyl)-4-hydroxycoumarin] |  | inhibiting cell-free and cell-mediated HIV infection

— patent publication US5504104A, “Tricyclic pyrone derivatives as protease inhibitors and antiviral agents” (Warner-Lambert Company, priority 1993, dated 1996)
